Data reported in patent US20230265089A1, “QUINOLINE DERIVATIVES, PHARMACEUTICALLY ACCEPTABLE SALTS, AND METHODS OF USE THEREOF” (vTv Therapeutics LLC, priority 2020, published 2023).

biological target: T1, PDE4D7 (Homo sapiens, UniProt Q08499); experiment: PDE4D7 TR-FRET assay; type: biochemical; details: TR-FRET assay kit, FAM-cAMP substrate
T1 construct: purchased BPS BioSciences 60708
T1 sequence (Q08499 1-748 isoform Q08499-11): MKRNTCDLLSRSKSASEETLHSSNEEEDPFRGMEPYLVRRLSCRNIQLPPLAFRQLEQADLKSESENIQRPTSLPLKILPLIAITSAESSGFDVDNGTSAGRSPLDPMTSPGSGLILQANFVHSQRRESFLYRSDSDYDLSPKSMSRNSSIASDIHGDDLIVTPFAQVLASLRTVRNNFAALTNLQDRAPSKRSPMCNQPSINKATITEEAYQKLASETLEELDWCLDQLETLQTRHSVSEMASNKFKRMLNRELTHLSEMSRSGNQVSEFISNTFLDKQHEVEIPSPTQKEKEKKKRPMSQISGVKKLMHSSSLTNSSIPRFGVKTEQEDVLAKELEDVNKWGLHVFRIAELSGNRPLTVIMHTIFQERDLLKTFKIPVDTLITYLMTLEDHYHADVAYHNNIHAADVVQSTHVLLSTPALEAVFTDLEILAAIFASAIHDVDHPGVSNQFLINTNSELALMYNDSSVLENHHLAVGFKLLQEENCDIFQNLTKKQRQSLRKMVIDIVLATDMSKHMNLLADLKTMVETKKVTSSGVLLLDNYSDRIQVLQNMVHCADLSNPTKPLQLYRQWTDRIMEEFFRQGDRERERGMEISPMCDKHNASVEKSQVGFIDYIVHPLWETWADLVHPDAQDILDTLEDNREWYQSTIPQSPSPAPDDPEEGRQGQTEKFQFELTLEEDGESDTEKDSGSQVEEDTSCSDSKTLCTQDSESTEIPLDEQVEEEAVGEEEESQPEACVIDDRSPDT
From the text: According to BPS Biosciences product information, the PDE4D7 TR-FRET assay is designed for identification of inhibitors of PDE4D7 using TR-FRET (Time Resolved Fluorescence Resonance Energy Transfer) technology. The assay is based on the generation of FAM-labeled nucleotide monophosphates by the phosphodiesterase. These phosphate groups bind to terbium-labeled nanoparticles, resulting in energy transfer from the terbium to the FAM, which emits a fluorescent signal at 520 nm. The change in fluorescent intensity can be easily measured using a fluorescence plate reader.
The general assay protocol for PDE4D7 TR-FRET assay used to obtain the experimental data described below includes two steps: First, the fluorescent-labeled cAMP is incubated with a sample containing PDE4D7 for 1 hour. Second, a binding agent and a terbium donor are added to the reaction mix and incubated for 1 hour. Then, fluorescence intensity can be measured using a fluorescence reader. A detailed protocol is as follows
Step 1: Dilute 20 μM FAM-Cyclic-3′,5′-AMP substrate stock solution 100-fold with PDE buffer to make a 200 nM solution. Make only a sufficient quantity needed for the assay; store remaining stock solution in aliquots at −20° C. Add 25 μl of FAM-Cyclic-3′,5′-AMP (200 nM) to each well designated “Substrate Control”, “Positive Control”, and “Test Inhibitor”. Add 25 μl of PDE assay buffer to each well designated “Tb-only Control”. Add 5 μl of inhibitor solution to each well designated “Test Inhibitor”. Add 5 μl of the same solution without inhibitor (inhibitor buffer) to the “Tb-only Control”, “Substrate Control” and “Positive Control”. Thaw PDE4D7 on ice. Upon first thaw, briefly spin tube containing enzyme to recover the full contents of the tube. […]
Step 2: Make binding dilution buffer by mixing equal volumes of Binding buffer A and Binding buffer B. For example, mix 1 ml Binding buffer A with 1 ml Binding buffer B. Mix binding agent thoroughly and dilute binding agent 1:50 with binding dilution buffer made in Step 1. […] Read the fluorescent intensity in a microtiter-plate reader capable of TR-FRET.

Row | SMILES | IC50
1 | COc1cccc2c1ncc1c(=O)n([C@H]3CC[C@H](C(=O)O)CC3)c(=O)n(-c3cccc(Cl)c3)c12 [COMPOUND I * HCI (Batch 1), trans-4-[1-(3-chlorophenyl)-7-methoxy-2,4-dioxo-pyrimido[5,4-c]quinolin-3-yl]cyclohexanecarboxylic acid] | 1.5 nM
2 | COc1cccc2c1ncc1c(=O)n([C@H]3CC[C@H](C(=O)O)CC3)c(=O)n(-c3cccc(Cl)c3)c12 [COMPOUND I * HCI (Batch 3), trans-4-[1-(3-chlorophenyl)-7-methoxy-2,4-dioxo-pyrimido[5,4-c]quinolin-3-yl]cyclohexanecarboxylic acid] | 1.1 nM
3 | COc1cccc2c1ncc1c(=O)n([C@H]3CC[C@H](C(=O)O)CC3)c(=O)n(-c3cccc(Cl)c3)c12 [COMPOUND I * HCI (Batch 2), trans-4-[1-(3-chlorophenyl)-7-methoxy-2,4-dioxo-pyrimido[5,4-c]quinolin-3-yl]cyclohexanecarboxylic acid] | 3.3 nM
